Each structure is given as a SMILES string.

What all share (assay type): functional
Experiment [1] has as its system Rattus norvegicus. Description: Antiallergic activity in anti-egg albumin homocytotropic antibody-sensitized Sprague-Dawley rat assessed as inhibition of passive cutaneous anaphylaxis reaction at 50 mg/kg, po administered 60 mins prior to antigen egg albumin challenge.
Experiment [2] has as its system Rattus norvegicus. The experiment can be described thus: Antiallergic activity in anti-egg albumin homocytotropic antibody-sensitized Sprague-Dawley rat assessed as inhibition of passive cutaneous anaphylaxis reaction at 50 mg/kg, po administered 5 mins prior to antigen egg albumin challenge.
Experiment [3] relates to Rattus norvegicus. The experiment can be described thus: Antiallergic activity in anti-egg albumin homocytotropic antibody-sensitized Sprague-Dawley rat assessed as inhibition of passive cutaneous anaphylaxis reaction at 50 mg/kg, po administered 20 mins prior to antigen egg albumin challenge.
Experiment [4] deals with Rattus norvegicus. Description: Antiallergic activity in anti-egg albumin homocytotropic antibody-sensitized Sprague-Dawley rat assessed as time of peak action for inhibition of passive cutaneous anaphylaxis reaction at 50 mg/kg, po administered prior to antigen egg albumin challenge.
Experiment [5] concerns Rattus norvegicus. The experiment can be described thus: Antiallergic activity in anti-egg albumin homocytotropic antibody-sensitized Sprague-Dawley rat assessed as inhibition of passive cutaneous anaphylaxis reaction at 50 mg/kg, po administered 120 mins prior to antigen egg albumin challenge.
Experiment [6] deals with Rattus norvegicus. The experiment can be described thus: Antiallergic activity in anti-egg albumin homocytotropic antibody-sensitized Sprague-Dawley rat assessed as inhibition of passive cutaneous anaphylaxis reaction at 1 mg/kg, iv administered at the time of antigen egg albumin challenge.
Experiment [7] deals with Rattus norvegicus. The experiment can be described thus: Antiallergic activity in anti-egg albumin homocytotropic antibody-sensitized Sprague-Dawley rat assessed as inhibition of passive cutaneous anaphylaxis reaction at 0.01 mg/kg, iv administered at the time of antigen egg albumin challenge.
The test system of experiment [8] is Rattus norvegicus. Description: Antiallergic activity in anti-egg albumin homocytotropic antibody-sensitized Sprague-Dawley rat assessed as inhibition of passive cutaneous anaphylaxis reaction at 0.1 mg/kg, iv administered at the time of antigen egg albumin challenge.

On to `CCOC(=O)C(=O)Nc1cccc(NC(=O)C(=O)OCC)c1F`, for which the inhibition in vivo (usually the percentage by which the read-out fell short of the control) at 50 mg/kg in experiment [1] was found to be 0%.
As to `CCOC(=O)C(=O)Nc1cccc(NC(=O)C(=O)OCC)c1Cl`, the values for the inhibition in vivo at 50 mg/kg in experiment [2], in experiment [3] and in experiment [1] were 53%, 17% and 1.8%, respectively. The Time in experiment [4] was found to be 5 min.
Consider `CCOC(=O)C(=O)Nc1cccc(NC(=O)C(=O)OCC)c1C(=O)OC`, for which the inhibition in vivo at 50 mg/kg in experiment [3] was found to be 27%; in experiment [1] it was 15%; in experiment [5] it was 0%.
`CCOC(=O)C(=O)Nc1cccc(NC(=O)C(=O)OCC)c1C`: the inhibition in vivo at 50 mg/kg in experiment [2] stood at 28%; in experiment [3], 53%.
Take `CCOC(=O)C(=O)Nc1cccc(NC(=O)C(=O)OCC)c1OC`: the inhibition in vivo at 50 mg/kg was found to be 72% in experiment [2], 11% in experiment [3] and 22% in experiment [1].
The like results for `CCOC(=O)C(=O)Nc1ccc(C)c(NC(=O)C(=O)OCC)c1` were, in that order, 17%, 38% and 12%.
Consider `CCCCc1ccc(NC(=O)C(=O)OCC)cc1NC(=O)C(=O)OCC`, for which the inhibition in vivo at 50 mg/kg in experiment [2] is 0%; in experiment [3] it was 0%; in experiment [1], 5%; in experiment [5], 0%.
As for `CCOC(=O)C(=O)Nc1ccc(OC)c(NC(=O)C(=O)OCC)c1`, the inhibition in vivo at 50 mg/kg in experiment [2] was 50%; in experiment [3] it was 70%; in experiment [1], 11%; in experiment [5], 45%.
Regarding `CCOC(=O)C(=O)Nc1ccc(F)c(NC(=O)C(=O)OCC)c1`, the inhibition in vivo at 50 mg/kg in experiment [2] is 74%; in experiment [3], 64%; in experiment [1], 18%.
As to `CCOC(=O)C(=O)Nc1cc(NC(=O)C(=O)OCC)cc(OC)c1`, the inhibition in vivo at 50 mg/kg in experiment [3] came to 4%; in experiment [1], 0%; in experiment [5], 29%.
Take `CCOC(=O)C(=O)Nc1cc(NC(=O)C(=O)OCC)cc(C(=O)O)c1`: the inhibition in vivo at 50 mg/kg in experiment [2] is 14%; in experiment [3] it was 0%; in experiment [1], 0%; in experiment [5], 20%.
As for `CCOC(=O)C(=O)Nc1cc(NC(=O)C(=O)OCC)cc([N+](=O)[O-])c1`, the inhibition in vivo at 50 mg/kg in experiment [2] came out at 0%; in experiment [3] it was 0%; in experiment [1], 6%.
Regarding `CCOC(=O)C(=O)Nc1cc(NC(=O)C(=O)OCC)cc(NC(=O)C(=O)OCC)c1`, the inhibition in vivo at 50 mg/kg in experiment [3] is 0%; in experiment [1], 5%; in experiment [5], 0%.
For `CCOC(=O)C(=O)Nc1cc(NC(C)=O)cc(NC(=O)C(=O)OCC)c1`, the inhibition in vivo at 50 mg/kg was found to be 6% in experiment [2], 1% in experiment [3], 0% in experiment [1] and 24% in experiment [5].
With `CCOC(=O)C(=O)Nc1cc(C)cc(NC(=O)C(=O)OCC)c1Cl`, the results for the inhibition in vivo at 50 mg/kg in experiment [3], in experiment [1] and in experiment [5] were 26%, 0% and 3%, respectively.
For the compound `CCOC(=O)C(=O)Nc1cc(C(=O)O)cc(NC(=O)C(=O)OCC)c1Cl`, the inhibition in vivo at 50 mg/kg worked out at 15% in experiment [2], 41% in experiment [3], 15% in experiment [1] and 9% in experiment [5].
Take `CCOC(=O)C(=O)Nc1cc(C(=O)OC)cc(NC(=O)C(=O)OCC)c1Cl`: the inhibition in vivo at 50 mg/kg in experiment [3] came out at 7%; in experiment [1], 0%; in experiment [5], 0%.
As for `CCOC(=O)C(=O)Nc1cc(C(N)=O)cc(NC(=O)C(=O)OCC)c1Cl`, the inhibition in vivo at 50 mg/kg in experiment [2] is 85%; in experiment [3], 49%.
Regarding `CCOC(=O)C(=O)Nc1cc(C(C)=O)cc(NC(=O)C(=O)OCC)c1Cl`, the values for the inhibition in vivo at 50 mg/kg in experiment [3], in experiment [1] and in experiment [5] were 14%, 37% and 31%, respectively.
As for `CCOC(=O)C(=O)Nc1cc(C(F)(F)F)cc(NC(=O)C(=O)OCC)c1Cl`, the inhibition in vivo at 50 mg/kg in experiment [2] was determined as 10%; in experiment [3], 10%; in experiment [1] it was 4%.
With `CCOC(=O)C(=O)Nc1cc(S(C)(=O)=O)cc(NC(=O)C(=O)OCC)c1Cl`, the inhibition in vivo at 50 mg/kg in experiment [2], in experiment [3] and in experiment [1] was 0% throughout.
With `CCOC(=O)C(=O)Nc1cc(-c2ccccc2)cc(NC(=O)C(=O)OCC)c1Cl`, the inhibition in vivo at 50 mg/kg in experiment [2] and in experiment [3] was 25% each time.
For `CCOC(=O)C(=O)Nc1c([N+](=O)[O-])cc([N+](=O)[O-])c(NC(=O)C(=O)OCC)c1Cl`, the inhibition in vivo at 50 mg/kg in experiment [3] was found to be 25%; in experiment [1], 0%.
In the case of `CCOC(=O)C(=O)Nc1cc(C(=O)O)cc(NC(=O)C(=O)OCC)c1C`, the inhibition in vivo at 50 mg/kg in experiment [2], in experiment [3], in experiment [1] and in experiment [5] was 0% throughout.
Take `CCOC(=O)C(=O)Nc1cc(C(F)(F)F)cc(NC(=O)C(=O)OCC)c1C#N`: the inhibition in vivo at 50 mg/kg amounted to 50% in experiment [2], 25% in experiment [3] and 0% in experiment [1].
On to `CCOC(=O)C(=O)Nc1cc(C(=O)OC)c(Cl)c(NC(=O)C(=O)OCC)c1Cl`, for which the inhibition in vivo at 50 mg/kg in experiment [3], in experiment [1] and in experiment [5] was 0% throughout.
Take `CCOC(=O)C(=O)Nc1cc(NC(=O)C(=O)OCC)c(Cl)cc1Cl`: the results for the inhibition in vivo at 50 mg/kg in experiment [3] and in experiment [1] were 50% and 25%, respectively.
The like results for `CCOC(=O)C(=O)Nc1cc(NC(=O)C(=O)OCC)c([N+](=O)[O-])cc1[N+](=O)[O-]` were, in that order, 17% and 9%.
For `CCOC(=O)C(=O)Nc1cc(C#N)c(Cl)c(NC(=O)C(=O)OCC)c1`, the inhibition in vivo at 50 mg/kg in experiment [2] turned out to be 100%; in experiment [3], 20%; in experiment [1] it was 0%.
On the same counts, the results for `CCOC(=O)C(=O)Nc1cc(NC(=O)C(=O)OCC)c(Cl)c(-c2ccccc2)c1` are 72%, 10% and 51%.
For `O=C(O)C(=O)Nc1cccc(NC(=O)C(=O)O)c1`, in experiment [6], the inhibition in vivo at 1 mg/kg is 82%. Moreover, the inhibition in vivo at 0.01 mg/kg in experiment [7] was 0%. Also, the inhibition in vivo at 0.1 mg/kg in experiment [8] stood at 73%.
Regarding `O=C(O)C(=O)Nc1cccc(NC(=O)C(=O)O)c1Cl`, in experiment [6], the inhibition in vivo at 1 mg/kg stood at 75%. In experiment [8], the inhibition in vivo at 0.1 mg/kg is 32%.
On to `COc1ccc(NC(=O)C(=O)O)cc1NC(=O)C(=O)O`, for which, in experiment [6], the inhibition in vivo at 1 mg/kg came to 100%. The inhibition in vivo at 0.1 mg/kg in experiment [8] was 0%.
On the same counts, the results for `N#Cc1ccc(NC(=O)C(=O)O)cc1NC(=O)C(=O)O` are 87% and 8%.
On the same counts, the results for `O=C(O)C(=O)Nc1ccc(F)c(NC(=O)C(=O)O)c1` are 100% and 41%.
For the compound `NC(=O)c1cc(NC(=O)C(=O)O)cc(NC(=O)C(=O)O)c1`, the inhibition in vivo at 1 mg/kg in experiment [6] was determined as 91%. Further, the inhibition in vivo at 0.1 mg/kg in experiment [8] turned out to be 17%.
With `N#Cc1cc(NC(=O)C(=O)O)cc(NC(=O)C(=O)O)c1`, the inhibition in vivo at 0.01 mg/kg in experiment [7] was 57%. Also, the inhibition in vivo at 0.1 mg/kg in experiment [8] came out at 90%.
As for `CC(=O)Nc1cc(NC(=O)C(=O)O)cc(NC(=O)C(=O)O)c1`, the inhibition in vivo at 1 mg/kg in experiment [6] was 47%. The inhibition in vivo at 0.01 mg/kg in experiment [7] worked out at 0%. In experiment [8], the inhibition in vivo at 0.1 mg/kg came to 11%.
`NC(=O)c1cc(NC(=O)C(=O)O)c(Cl)c(NC(=O)C(=O)O)c1`: in experiment [6], the inhibition in vivo at 1 mg/kg was found to be 90%. For the same compound, the inhibition in vivo at 0.01 mg/kg in experiment [7] came out at 0%. In experiment [8], the inhibition in vivo at 0.1 mg/kg was 28%.
The like results for `CC(=O)c1cc(NC(=O)C(=O)O)c(Cl)c(NC(=O)C(=O)O)c1` were, in that order, 88%, 0% and 22%.
With `O=C(O)C(=O)Nc1cc(-c2ccccc2)cc(NC(=O)C(=O)O)c1Cl`, in experiment [6], the inhibition in vivo at 1 mg/kg was 94%. Further, the inhibition in vivo at 0.01 mg/kg in experiment [7] was found to be 44%. Further, the inhibition in vivo at 0.1 mg/kg in experiment [8] was determined as 87%.
The like results for `O=C(O)C(=O)Nc1cc(NC(=O)C(=O)O)c(Cl)cc1Cl` were, in that order, 81%, 0% and 25%.
For the compound `O=C(O)C(=O)Nc1cc(CS(=O)O)cc(NC(=O)C(=O)O)c1Cl`, the inhibition in vivo at 1 mg/kg in experiment [6] was 85%. Moreover, in experiment [8], the inhibition in vivo at 0.1 mg/kg was determined as 10%.
In the case of `O=C(O)C(=O)Nc1ccc(NC(=O)C(=O)O)cc1`, in experiment [6], the inhibition in vivo at 1 mg/kg is 18%.
On to `N#Cc1cc(NC(=O)C(=O)O)ccc1NC(=O)C(=O)O`, for which, in experiment [6], the inhibition in vivo at 1 mg/kg is 45%.
As for `O=C(O)C(=O)Nc1cc(Cl)c(NC(=O)C(=O)O)cc1Cl`, the inhibition in vivo at 1 mg/kg in experiment [6] is 73%.

(Values after ChEMBL document CHEMBL3244076, “N,N'-(Phenylene)dioxamic acids and their esters as antiallergy agents” (1978).)
